# Test results published in patent US11497212B2, “Substituted thiophenyl uracils, salts thereof and the use thereof as herbicidal agents” (Syngenta Crop Protection AG, priority 2017, dated 2022).
# Assays:
# Format in all cases: in vivo
# Triticum aestivum = experiment: Crop compatibility post-emergence (greenhouse pot trial)
# Experimental: (§1) Seeds of mono- and dicotyledonous weed plants and crop plants are laid out in sandy loam soil in plastic or wood-fiber pots, covered with earth and grown under controlled growth conditions in a greenhouse. 2 to 3 weeks after sowing, the trial plants are treated at the one-leaf stage. The compounds of the invention formulated in the form of wettable powders (WP) or emulsion concentrates (EC) were then sprayed onto the green parts of the plant as an aqueous suspension or emulsion with addition of 0.5% additive at a water application rate equivalent to 600 L/ha. After the trial plants had stood for about 3 weeks in the greenhouse, under optimal growth conditions, the effect of the preparations was scored visually by comparison with untreated controls. For example, 100% efficacy=plants have died, 0% efficacy=like control plants.
# (§2) Crop plant compatibilities were also scored correspondingly.
# (§3) The effects observed are reported here on selected crop plants by comparison with the untreated controls (values in %).
# Echinochloa crus-galli = experiment: Herbicidal action post-emergence (greenhouse pot trial); settings: application rate 20 g/ha, scored visually after about 3 weeks vs untreated controls
# Experimental: as §1, with “plants. Tables A1 to A15 below show the efficacies of selected compounds of the general formula (I) according to tables I.1 to I.60 on various harmful plants and an application rate corresponding to 80 g/ha or lower that were obtained by the aforementioned trial method.” for “plants.”
# Pharbitis purpurea = experiment: as above; settings: application rate 20 g/ha
# Experimental: as §1, with “plants. Tables A1 to A15 below show the efficacies of selected compounds of the general formula (I) according to tables I.1 to I.60 on various harmful plants and an application rate corresponding to 80 g/ha or lower that were obtained by the aforementioned trial method.” for “plants.”
# Digitaria sanguinalis = experiment: as above; settings: application rate 20 g/ha
# Experimental: as §1, with “plants. Tables A1 to A15 below show the efficacies of selected compounds of the general formula (I) according to tables I.1 to I.60 on various harmful plants and an application rate corresponding to 80 g/ha or lower that were obtained by the aforementioned trial method.” for “plants.”
# Setaria viridis = experiment: as above; settings: application rate 20 g/ha, scored visually after about 3 weeks vs untreated controls
# Experimental: as §1, with “plants. Tables A1 to A15 below show the efficacies of selected compounds of the general formula (I) according to tables I.1 to I.60 on various harmful plants and an application rate corresponding to 80 g/ha or lower that were obtained by the aforementioned trial method.” for “plants.”
# Matricaria inodora = experiment: as above; settings: application rate 20 g/ha, scored visually after about 3 weeks vs untreated controls
# Experimental: as §1, with “plants. Tables A1 to A15 below show the efficacies of selected compounds of the general formula (I) according to tables I.1 to I.60 on various harmful plants and an application rate corresponding to 80 g/ha or lower that were obtained by the aforementioned trial method.” for “plants.”
# Abutilon theophrasti = experiment: as above; settings: application rate 20 g/ha, scored visually after about 3 weeks vs untreated controls
# Experimental: as §1, with “plants. Tables A1 to A15 below show the efficacies of selected compounds of the general formula (I) according to tables I.1 to I.60 on various harmful plants and an application rate corresponding to 80 g/ha or lower that were obtained by the aforementioned trial method.” for “plants.”
# Polygonum convolvulus = experiment: as above; settings: application rate 20 g/ha, scored visually after about 3 weeks vs untreated controls
# Experimental: as §1, with “plants. Tables A1 to A15 below show the efficacies of selected compounds of the general formula (I) according to tables I.1 to I.60 on various harmful plants and an application rate corresponding to 80 g/ha or lower that were obtained by the aforementioned trial method.” for “plants.”
# Viola tricolor = experiment: as above; settings: application rate 20 g/ha
# Experimental: as §1, with “plants. Tables A1 to A15 below show the efficacies of selected compounds of the general formula (I) according to tables I.1 to I.60 on various harmful plants and an application rate corresponding to 80 g/ha or lower that were obtained by the aforementioned trial method.” for “plants.”
# Amaranthus retroflexus = experiment: as above; settings: application rate 20 g/ha, scored visually after about 3 weeks vs untreated controls
# Experimental: as §1, with “plants. Tables A1 to A15 below show the efficacies of selected compounds of the general formula (I) according to tables I.1 to I.60 on various harmful plants and an application rate corresponding to 80 g/ha or lower that were obtained by the aforementioned trial method.” for “plants.”
# Veronica persica = experiment: as above; settings: application rate 20 g/ha
# Experimental: as §1, with “plants. Tables A1 to A15 below show the efficacies of selected compounds of the general formula (I) according to tables I.1 to I.60 on various harmful plants and an application rate corresponding to 80 g/ha or lower that were obtained by the aforementioned trial method.” for “plants.”
# Stellaria media = experiment: as above; settings: application rate 20 g/ha, scored visually after about 3 weeks vs untreated controls
# Experimental: as §1, with “plants. Tables A1 to A15 below show the efficacies of selected compounds of the general formula (I) according to tables I.1 to I.60 on various harmful plants and an application rate corresponding to 80 g/ha or lower that were obtained by the aforementioned trial method.” for “plants.”
# Oryza sativa = experiment: Crop compatibility post-emergence (greenhouse pot trial); settings: application rate 20 g/ha
# Experimental: as §1, §2, §3
SMILES,Triticum aestivum (Efficacy in %) (Triticum aestivum; application rate 20 g/ha) [%],Triticum aestivum (Efficacy in %) (Triticum aestivum; application rate 5 g/ha) [%],Oryza sativa (Efficacy in %) (Oryza sativa) [%],Echinochloa crus-galli (Efficacy in %) (Echinochloa crus-galli) [%],Pharbitis purpurea (Efficacy in %) (Pharbitis purpurea) [%],Digitaria sanguinalis (Efficacy in %) (Digitaria sanguinalis) [%],Setaria viridis (Efficacy in %) (Setaria viridis) [%],Matricaria inodora (Efficacy in %) (Matricaria inodora) [%],Abutilon theophrasti (Efficacy in %) (Abutilon theophrasti) [%],Polygonum convolvulus (Efficacy in %) (Polygonum convolvulus) [%],Viola tricolor (Efficacy in %) (Viola tricolor) [%],Amaranthus retroflexus (Efficacy in %) (Amaranthus retroflexus) [%],Veronica persica (Efficacy in %) (Veronica persica) [%],Stellaria media (Efficacy in %) (Stellaria media) [%]
CCC(C)C(Sc1cc(-n2c(=O)cc(C(F)(F)F)n(C)c2=O)c(F)cc1Cl)C(=O)OCC1CCOC1 (centres unmarked) [I.5-72],20,–,–,90,100,100,80,90,100,90,100,100,100,–
CCC(C)C(Sc1cc(-n2c(=O)cc(C(F)(F)F)n(C)c2=O)c(F)cc1Cl)C(=O)OCC1CCCCO1 (centres unmarked) [I.5-91],10,–,–,80,100,–,90,90,100,90,100,100,100,–
Cn1c(C(F)(F)F)cc(=O)n(-c2cc(SCC(C)(C)C(=O)OCC3CCCS3)c(Cl)cc2F)c1=O (centres unmarked) [I.48-81],20,–,–,90,100,100,–,100,100,100,100,100,100,100

# Continued, in another order:
Triticum aestivum (Efficacy in %) (Triticum aestivum; application rate 20 g/ha) [%],Triticum aestivum (Efficacy in %) (Triticum aestivum; application rate 5 g/ha) [%],Oryza sativa (Efficacy in %) (Oryza sativa) [%],SMILES,Echinochloa crus-galli (Efficacy in %) (Echinochloa crus-galli) [%],Pharbitis purpurea (Efficacy in %) (Pharbitis purpurea) [%],Digitaria sanguinalis (Efficacy in %) (Digitaria sanguinalis) [%],Setaria viridis (Efficacy in %) (Setaria viridis) [%],Matricaria inodora (Efficacy in %) (Matricaria inodora) [%],Abutilon theophrasti (Efficacy in %) (Abutilon theophrasti) [%],Polygonum convolvulus (Efficacy in %) (Polygonum convolvulus) [%],Viola tricolor (Efficacy in %) (Viola tricolor) [%],Amaranthus retroflexus (Efficacy in %) (Amaranthus retroflexus) [%],Veronica persica (Efficacy in %) (Veronica persica) [%],Stellaria media (Efficacy in %) (Stellaria media) [%]
–,20,–,Cn1c(C(F)(F)F)cc(=O)n(-c2cc(SCC(C)(C)C(=O)OCC3CCCCO3)c(Cl)cc2F)c1=O (centres unmarked) [I.48-91],100,100,100,–,100,100,100,100,100,100,100
20,–,10,CC(CC(=O)OCC1CCCO1)Sc1cc(-n2c(=O)cc(C(F)(F)F)n(C)c2=O)c(F)cc1Cl (centres unmarked) [I.49-71],–,100,–,–,100,100,100,100,100,100,100
0,–,0,Cc1c(C(F)(F)F)n(C)c(=O)n(-c2cc(SCC(C)(C)C(=O)NCC3CCCCO3)c(Cl)cc2F)c1=O (centres unmarked) [I.54-241],–,–,80,100,–,100,100,–,100,100,80
